Experimental data as given in ChEMBL document CHEMBL5154721, “Discovery of HDAC6-Selective Inhibitor NN-390 with in Vitro Efficacy in Group 3 Medulloblastoma” (J Med Chem, 2022).
Calls of active or inactive are those of the source. The rule behind the calls is not given here.

Tests used:
Histone deacetylase 11 = target: T1, Histone deacetylase 11 (Homo sapiens, UniProt Q96DB2); experiment: Inhibition of full length human recombinant HDAC11 expressed in Sf9 baculovirus system using FAM-labeled acetylated peptide as substrate by measuring fluorescence intensity by EMSA method
T1 sequence (Q96DB2 whole entry): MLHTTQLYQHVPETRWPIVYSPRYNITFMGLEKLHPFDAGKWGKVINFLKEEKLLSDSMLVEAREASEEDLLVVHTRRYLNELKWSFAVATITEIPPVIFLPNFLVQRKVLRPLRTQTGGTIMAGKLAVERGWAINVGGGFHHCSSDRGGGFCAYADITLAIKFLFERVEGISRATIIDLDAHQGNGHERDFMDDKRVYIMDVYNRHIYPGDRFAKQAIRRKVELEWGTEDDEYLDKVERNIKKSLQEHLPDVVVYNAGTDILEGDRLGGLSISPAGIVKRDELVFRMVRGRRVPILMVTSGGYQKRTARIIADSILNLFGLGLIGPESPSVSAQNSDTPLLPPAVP

MV4-11 [1] = experiment: cells; type: functional, cell-based; conditions: Homo sapiens, MV4-11, 72 h
MM1.S = experiment: Cytotoxicity against human MM1.S cells assessed as inhibition of cell growth incubated for 72 hrs measured by spectrophotometer analysis; type: functional, cell-based
in vitro = conditions: human, MRC9 cells
[2] = target: T2, Protein deacetylase HDAC6 (Homo sapiens, UniProt Q9UBN7); experiment: Inhibition of full length human recombinant HDAC6 expressed in Sf9 baculovirus system using FAM-labeled acetylated peptide as substrate by measuring fluorescence intensity by EMSA method
T2 sequence (Q9UBN7 whole entry): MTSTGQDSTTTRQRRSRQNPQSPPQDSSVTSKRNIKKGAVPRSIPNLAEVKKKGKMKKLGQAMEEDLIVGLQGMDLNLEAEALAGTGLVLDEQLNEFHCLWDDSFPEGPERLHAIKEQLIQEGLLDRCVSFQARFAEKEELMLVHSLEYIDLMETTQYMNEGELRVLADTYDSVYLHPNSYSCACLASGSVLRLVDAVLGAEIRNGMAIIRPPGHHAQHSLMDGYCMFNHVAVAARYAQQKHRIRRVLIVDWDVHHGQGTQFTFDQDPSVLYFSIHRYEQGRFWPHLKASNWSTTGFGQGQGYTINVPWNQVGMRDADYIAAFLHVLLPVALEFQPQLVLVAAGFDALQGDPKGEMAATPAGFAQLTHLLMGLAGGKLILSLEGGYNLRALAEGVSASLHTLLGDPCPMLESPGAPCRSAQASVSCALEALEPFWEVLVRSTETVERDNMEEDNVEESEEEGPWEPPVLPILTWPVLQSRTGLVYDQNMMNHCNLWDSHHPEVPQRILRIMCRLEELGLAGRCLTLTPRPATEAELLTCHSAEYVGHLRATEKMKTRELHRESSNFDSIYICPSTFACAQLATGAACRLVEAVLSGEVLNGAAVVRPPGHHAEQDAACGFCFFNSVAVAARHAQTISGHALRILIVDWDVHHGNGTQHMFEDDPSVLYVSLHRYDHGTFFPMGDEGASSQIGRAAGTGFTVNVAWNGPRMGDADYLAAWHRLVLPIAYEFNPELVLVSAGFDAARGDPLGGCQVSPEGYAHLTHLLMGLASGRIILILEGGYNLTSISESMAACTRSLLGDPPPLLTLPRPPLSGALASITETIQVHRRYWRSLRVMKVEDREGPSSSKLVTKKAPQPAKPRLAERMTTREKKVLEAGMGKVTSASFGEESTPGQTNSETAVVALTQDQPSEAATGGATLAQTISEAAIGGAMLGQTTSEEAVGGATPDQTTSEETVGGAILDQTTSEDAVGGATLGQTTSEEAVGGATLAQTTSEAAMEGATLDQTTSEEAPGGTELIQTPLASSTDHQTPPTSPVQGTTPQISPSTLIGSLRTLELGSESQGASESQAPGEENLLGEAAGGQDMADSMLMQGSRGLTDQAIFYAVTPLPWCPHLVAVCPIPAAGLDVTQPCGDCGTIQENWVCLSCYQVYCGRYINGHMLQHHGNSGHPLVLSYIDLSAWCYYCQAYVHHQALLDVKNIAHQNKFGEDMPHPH

Histone deacetylase 3 = Histone deacetylase 3 (Homo sapiens, UniProt O15379); experiment: Inhibition of full length human recombinant HDAC3 expressed in Sf9 baculovirus system using FAM-labeled acetylated peptide as substrate by measuring fluorescence intensity by EMSA method
Histone deacetylase 8 = target: T3, Histone deacetylase 8 (Homo sapiens, UniProt Q9BY41); experiment: Inhibition of full length human recombinant HDAC8 expressed in Sf9 baculovirus system using FAM-labeled acetylated peptide as substrate by measuring fluorescence intensity by EMSA method
T3 sequence (Q9BY41 whole entry): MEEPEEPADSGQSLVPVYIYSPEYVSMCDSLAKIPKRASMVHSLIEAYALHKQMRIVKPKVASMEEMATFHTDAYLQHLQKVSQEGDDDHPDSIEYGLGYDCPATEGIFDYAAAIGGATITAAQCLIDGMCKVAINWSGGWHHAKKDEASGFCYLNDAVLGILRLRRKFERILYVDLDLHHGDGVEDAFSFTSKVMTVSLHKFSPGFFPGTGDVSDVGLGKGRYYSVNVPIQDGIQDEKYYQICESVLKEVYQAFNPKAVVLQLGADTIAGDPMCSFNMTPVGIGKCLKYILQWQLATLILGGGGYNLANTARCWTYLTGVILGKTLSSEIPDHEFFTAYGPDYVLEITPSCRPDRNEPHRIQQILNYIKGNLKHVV

[3] = Cytotoxicity against human HD-MB03 cells assessed as inhibition of cell growth incubated for 72 hrs measured by spectrophotometer analysis; type: functional, cell-based; conditions: HD-MB03, 72 h
[4] = Competitive inhibition of N-terminal His-SUMO tagged zebra fish recombinant HDAC6 catalytic domain 2 transfected with pET28b(+) vector in Escherichia coli BL21 (DE3) RILP cells incubated for 10 mins followed by addition of FITC-M344 measured af ter 10 mins by fluorescence polarization assay; design: species or system Danio rerio
[5] = Therapeutic window, ratio of IC50 for human fetal neuronal stem cells to IC50 for human HD-MB03 cells; type: ADME; conditions: fetal neuronal stem cells versus HD-MB03 cells, read-out: Ratio IC50
[6] = Stability in human plasma assessed as half life measured upto 60 mins by LC-MS/MS analysis; type: ADME, cell-free
[7] = AUCinfinity in CD-1 mouse at 20 mg/kg, ip; type: ADME, organism-based; design: time infinity, dose 20 mg/kg, route ip; conditions: in vivo
[8] = Cytotoxicity against human fetal neuronal stem cells assessed as inhibition of cell growth incubated for 72 hrs measured by spectrophotometer analysis; type: toxicity, cell-based, NSC
[9] = AUC/D in CD-1 mouse at 20 mg/kg, ip; type: ADME, organism-based; conditions: in vivo
MV4-11 [10] = experiment: Increase in acetylation of histone H3 in human MV4-11 cells at 0.1 uM after 6 hrs by Western blot analysis; type: functional, cell-based
[11] = Cytotoxicity against HUVEC cells assessed as inhibition of cell growth incubated for 72 hrs measured by spectrophotometer analysis; type: toxicity, cell-based; conditions: human
[12] = Cytotoxicity against primary normal human fibroblast cells assessed as inhibition of cell growth incubated for 72 hrs measured by spectrophotometer analysis; type: toxicity, cell-based

Sequence of Histone deacetylase 3 (O15379 whole entry): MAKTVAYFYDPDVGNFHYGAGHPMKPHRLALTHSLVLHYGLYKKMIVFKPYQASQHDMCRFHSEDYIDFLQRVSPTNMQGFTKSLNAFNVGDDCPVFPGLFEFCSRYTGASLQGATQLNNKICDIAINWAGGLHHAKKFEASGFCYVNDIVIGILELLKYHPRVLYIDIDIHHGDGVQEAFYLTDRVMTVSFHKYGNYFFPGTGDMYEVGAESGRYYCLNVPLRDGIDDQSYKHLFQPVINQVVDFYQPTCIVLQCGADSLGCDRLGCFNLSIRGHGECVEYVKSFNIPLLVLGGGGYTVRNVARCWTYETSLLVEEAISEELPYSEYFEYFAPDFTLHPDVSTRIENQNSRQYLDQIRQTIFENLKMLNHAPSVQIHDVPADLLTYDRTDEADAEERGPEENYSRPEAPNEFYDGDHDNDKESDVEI

Row | Structure (SMILES) | IC50 (Histone deacetylase 11) | IC50 (MV4-11 [1]) | IC50 (MM1.S) | IC50 at 72 h (in vitro) | IC50 [2] | IC50 (Histone deacetylase 3) | IC50 (Histone deacetylase 8) | IC50 [3] | IC50 [4] | selectivity ratio [5] | half-life [6] | AUC(0-inf) [7] | IC50 at 72 h [8] | AUC/dose [9] | Activity (MV4-11 [10]) | IC50 at 72 h [11] | IC50 at 72 h [12]
1 | CC(C)N(Cc1ccc(CC(=O)NO)cc1)S(=O)(=O)c1cc(F)c(F)c(F)c1F | > 1000 nM | 2500 nM | 2400 nM | > 25000 nM | 143 nM | > 1000 nM | 84.6 nM | – | – | – | – | – | – | – | – | – | –
2 | O=C(/C=C/c1cccc(S(=O)(=O)Nc2ccccc2)c1)NO [BELINOSTAT] | – | – | – | – | – | – | – | 320 nM | 213 nM | 3.7 | – | – | – | – | – | – | –
3 | O=C(NO)c1ccc(CN(C2CC2)S(=O)(=O)c2cc(F)c(F)c(F)c2F)cc1 | – | 400 nM | 480 nM | > 20000 nM | – | – | > 1000 nM | – | 173 nM | – | 41 min | 1520 ng·h/mL | 1430 nM | 79 ng·h/mL | – | – | –
4 | COc1cc(C(=O)NO)ccc1CN(C(C)C)S(=O)(=O)c1cc(F)c(F)c(F)c1F | > 1000 nM | 5660 nM | 5750 nM | > 50000 nM | > 1000 nM | > 1000 nM | 474 nM | – | – | – | – | – | – | – | – | – | –
5 | O=C(CCCCCCNC(=O)c1cnc(N(c2ccccc2)c2ccccc2)nc1)NO [RICOLINOSTAT] | – | – | 840 nM | > 20000 nM | – | – | – | 5220 nM | 90.2 nM | – | – | – | – | – | – | – | –
6 | COCCN(Cc1ccc(C(=O)NO)cc1)S(=O)(=O)c1cc(F)c(F)c(F)c1F | > 1000 nM | 660 nM | 710 nM | > 25000 nM | 27.8 nM | > 1000 nM | > 1000 nM | – | – | – | – | – | – | – | – | – | –
7 | CC(C)N(Cc1ccc(C(=O)NO)cc1)S(=O)(=O)c1c(F)c(F)c(F)c(F)c1F | – | – | 440 nM | > 20000 nM | 4.32 nM | – | – | – | 182 nM | – | 22 min | – | – | – | Active | 3700 nM | 2300 nM
8 | O=C(NO)c1ccc(CN(C2CCCC2)S(=O)(=O)c2cc(F)c(F)c(F)c2F)cc1 | > 1000 nM | 2710 nM | 3300 nM | > 50000 nM | 49.9 nM | > 1000 nM | > 1000 nM | – | 356 nM | – | – | – | – | – | – | – | –
